Laboratory results from PMC10873978, “Novel tetrahydroisoquinolines as DHFR and CDK2 inhibitors: synthesis, characterization, anticancer activity and antioxidant properties” (BMC Chemistry, 2024).
“Also recorded” adds a separate entry of the source.

Tests used:
A549 cell line = assay: In vitro cytotoxic activity, MTT method, A549
Method: (§1) Cell lines: The in vitro human breast cancerous cell line (MCF7), lung cancerous cell lines (A549) and normal cell lines were purchased from Serum and Vaccine formulation in Cairo-Egypt.
(§2) In vitro cytotoxic activity of all synthesized compounds against two human breast cell line (MCF7) and lung cell lines (A549) was evaluated according to the MTT method. Firstly, Growth the cell line medium in 96 well tissue culture plate was injected with 10^5 cells/mL (100 uL/plate well) of the cell line and incubated at 37 °C for 24 h to develop a monolayer sheet then the formed growth medium was poured from 96 well microtiter plates after the confluent sheet of cells. […] Secondly, add 0.1 mL of each concentration tetrahydroisoquinoline sample to each plate. The plates were incubated at 37 °C. Thirdly MTT solution (5 mg/mL in PBS) is prepared. Add 20 µL of MTT solution to each well plates. And shaking in 150 rpm for 5 min, to mix the MTT into the media. Then incubate at (37 °C, 5% CO2) for 1–5 h. Finally read the optical density at 560 nm and subtract background at 620 nm.
(§3) In this work, doxorubicin was used as a positive control drug for comparison with the synthesized compounds under the same experimental conditions.

MCF7 cell line = assay: In vitro cytotoxic activity, MTT method, MCF7; type: cell-based, human
Method: as §1, §2, §3

[1] = DPPH scavenging antioxidant activity
Method: The antioxidant activity of ten compounds was determined using DPPH [32–34]. A solution 1: prepared by dissolving DPPH (0.002 g) in ethanol (50 mL etnanol). Solution 2: prepared by dissolving different weights 0.05, 0.01 g of each sample in 1 mL of DMSO then take 10 µL of each sample solution with 1 mL ethanol. Then mix 1 mL of solution 1 with 1 mL of solution 2 then vortex the resulting mixture in the dark for about 30 min. The absorbance of the mixture was measured by spectrophotometer at λmax = 517 nm against blank 1 mL absolute ethanol and compared to the ascorbic acid (Vitamin C).
Ten newly synthesized compounds were studied as in vitro antioxidants by measuring of their DPPH scavenging activity which is represented as a percentage % [32]^. Results are represented by mean ± SD of three replicates. […] The higher dose concentration of 0.05 μg/mL represents higher antioxidant activity. […] The high antioxidant activity is referred to the presence of C=O, NH2, and OH groups like ascorbic acid which can be easily oxidized and reduced and can be used as antioxidant drugs. (Fig. 8 and Table 9).

## CC(=O)C1C(c2ccc(N(C)C)cc2)c2c(C)nc(SCC#N)c(C#N)c2CC1(C)O (stereo not shown) [Compound 6, 2-[(7-Acetyl-4-cyano-1,6-dimethyl-6-hydroxy-8-(4-N,N-dimethylamino-phenyl)-5,6,7,8-tetrahydroisoquinolin-3-yl)thio]acetonitrile]
A549 cell line; A549, Conc. 0.0487 µMol
  Viability %: 99.7%
A549 cell line; A549, Conc. 0.0975 µMol
  Toxicity %: 0.50%
  Viability %: 99.5%
A549 cell line; A549, Conc. 0.195 µMol
  Toxicity %: 0.6312%
  Viability %: 99.37%
A549 cell line; A549, Conc. 0.391 µMol
  Toxicity %: 1.46%
  Viability %: 98.54%
A549 cell line; A549, Conc. 0.781 µMol
  Toxicity %: 15.46%
  Viability %: 84.54%
A549 cell line; A549, Conc. 1.562 µMol
  Toxicity %: 29.7%
  Viability %: 70.3%
A549 cell line; A549, Conc. 3.125 µMol
  Toxicity %: 43.83%
  Viability %: 56.17%
A549 cell line; A549, Conc. 6.25 µMol
  Toxicity %: 74.71%
  Viability %: 25.29%
A549 cell line; A549, Conc. 12.5 µMol
  Toxicity %: 88.52%
  Viability %: 11.48%
A549 cell line; A549, Conc. 25 µMol
  Toxicity %: 96.29%
  Viability %: 3.708%
A549 cell line; Homo sapiens, read-out: IC50 ± SD
  IC50: 3.736 ± 0.002 µM
MCF7 cell line; Homo sapiens, MCF7, MCF7 cell line, MTT
  IC50: 0.329 ± 0.005 µM
MCF7 cell line; MCF7, 0.0487 µMol
  Viability %: 80.118%
MCF7 cell line; MCF7, 0.0975 µMol
  Toxicity %: 25.5567%
  Viability %: 74.5543%
MCF7 cell line; MCF7, 0.195 µMol
  Toxicity %: 38.24%
  Viability %: 61.76%
MCF7 cell line; MCF7, 0.391 µMol
  Toxicity %: 59.68%
  Viability %: 40.32%
MCF7 cell line; MCF7, 0.781 µMol
  Toxicity %: 70.71%
  Viability %: 29.29%
MCF7 cell line; MCF7, 1.562 µMol
  Toxicity %: 76.35%
  Viability %: 23.65%
MCF7 cell line; MCF7, 3.125 µMol
  Toxicity %: 85.7%
  Viability %: 14.3%
MCF7 cell line; MCF7, 6.25 µMol
  Toxicity %: 93.38%
  Viability %: 6.618%
MCF7 cell line; MCF7, 12.5 µMol
  Toxicity %: 97.14%
  Viability %: 2.859%
MCF7 cell line; MCF7, 25 µMol
  Toxicity %: 97.34%
  Viability %: 2.655%
[1]; 0.01 µg/mL
  DPPH scavenging, inhibition (%): 69.67 ± 5.65%
[1]; 0.05 µg/mL
  DPPH scavenging, inhibition (%): 83.72 ± 4.08%
[1]; DPPH
  antioxidant activity compared with Vitamin C: higher result than Vitamin C; also recorded: higher antioxidant activity than Vitamin C
